Measurements reported in patent publication US12240859B2, “Turbinmicin compounds, compositions and uses thereof” (Wisconsin Alumni Research Foundation, priority 2019, dated 2025).
Values after ≈ are worked out from the molar mass of the structure shown. Where two headings read alike, the source gives them in different places. *1 amine or outer side, *2 acyl side, *3 side chain or, on linkers, in order; H or OH if unused. Where a SMILES comes first, the peptide text is derived from it. Bridges are numbered along the chain shown (N, C = ends). [ ]: non-standard residue; d: D form. The star is where a group is joined. hTyr(3S-OH,4S-OH,3'-OSO3H) = N[C@H](C(=O)O)[C@H](O)[C@@H](O)c1ccc(O)c(OS(=O)(=O)O)c1; Orn(4R-OH,5R-OH) = O=C([C@H](C[C@@H](O)[C@@H](O)N[*:3])N[*:1])[*:2]; Pro(3S-OH,4S-Me) = C[C@H]1CN[C@H](C(=O)O)[C@H]1O; X1 = CCCCCOc1ccc(-c2cc(-c3ccc(C(=O)*)cc3)no2)cc1; Gln(3R-OH) = NC(=O)C[C@@H](O)[C@H](N)C(=O)O; Hyp = O=C(O)[C@@H]1C[C@@H](O)CN1

Tests used:
[1] = test system: C. albicans; assay: In vitro MIC susceptibility testing, broth microdilution; type: cell-based, Candida albicans
Method: (§1) In vitro MIC susceptibility testing. […]. Amphotericin B was used as a positive control and the MICs range were 0.25-1.5 μg/mL. Six untreated media controls were included on each plate. The plates were incubated at 33° C. for 72 h. The MICs were determined as the lowest concentration that inhibited visible growth. The MICs were read at 24, 48, and 72 hours, respectively. […]

[2] = test system: C. glabrata; assay: as above; type: cell-based, Candida glabrata; settings: Nakaseomyces glabratus
Method: as §1

[3] = test system: C. auris; assay: as above; type: cell-based, Candida auris; parameters: unit: ug/mL
Method: as §1

[4] = test system: five Candida isolates, C. albicans K-1, C. tropicalis 98-234, C. auris B 11211, C. glabrata 4720, C. albicans SN 250; assay: In vitro MIC susceptibility testing, positive control over the Candida isolates; type: cell-based; settings: RPMI medium
Method: as §1

[5] = test system: C. tropicalis; assay: In vitro MIC susceptibility testing, broth microdilution; type: cell-based; settings: Candida tropicalis, strain 98-234; read-out: MIC
Method: In vitro MIC susceptibility testing. […] The plates were incubated at 33° C. for 72 h. The MICs were determined as the lowest concentration that inhibited visible growth. The MICs were read at 24, 48, and 72 hours, respectively.

[6] = test system: A. fumigatus F11628; settings: same Cyp51 mutant A. fumigatus strain, comparison; cited from earlier work
[7] = test system: Aspergillus fumigatus; assay: In vitro MIC susceptibility testing; type: cell-based
Method: as §1

[8] = Candidozyma auris, strain B11104
[9] = Candidozyma auris, strain B11203
[10] = Candidozyma auris, strain B11219
[11] = Candidozyma auris, strain B11221
[12] = Candida albicans, strain 98-17, read-out: MIC
[13] = Candida albicans, strain 98-210, read-out: MIC
[14] = Candida albicans, strain 580, read-out: MIC
[15] = Candida albicans, strain K1 (K-1), read-out: MIC
[16] = Candidozyma auris, strain B11211, resistant to amphotericin B, fluconazole, micafungin, read-out: MIC
[17] = Candidozyma auris, strain B11220, read-out: MIC
[18] = Candidozyma auris, strain B11785, read-out: MIC
[19] = Candidozyma auris, strain B11799, read-out: MIC
[20] = Candidozyma auris, strain B11801, read-out: MIC
[21] = Candidozyma auris, strain B11804, read-out: MIC
[22] = positive controls, A. fumigatus F11628, read-out: MIC

CCCCCOc1ccc(-c2cc(-c3ccc(C(=O)N[C@H]4C[C@@H](O)[C@@H](O)NC(=O)[C@@H]5[C@@H](O)[C@@H](C)CN5C(=O)[C@H]([C@H](O)CC(N)=O)NC(=O)[C@H]([C@H](O)[C@@H](O)c5ccc(O)c(OS(=O)(=O)O)c5)NC(=O)[C@@H]5C[C@@H](O)CN5C(=O)[C@H]([C@@H](C)O)NC4=O)cc3)no2)cc1 [Micafungin, micafungin] (X1-[Orn(4R-OH,5R-OH)]T[Hyp][hTyr(3S-OH,4S-OH,3'-OSO3H)][Gln(3R-OH)][Pro(3S-OH,4S-Me)]; lactam 1-C)
MIC ([1]; Candida albicans, strain 98-17): 0.06 mg/L (≈ 0.0472 µM)
MIC ([1]; Candida albicans, strain 98-210): 0.03 mg/L (≈ 0.0236 µM)
MIC ([1]; Candida albicans, strain 580): 0.016 mg/L (≈ 0.0126 µM)
MIC ([1]; Candida albicans, strain K1 (K-1)): 0.03 mg/L (≈ 0.0236 µM)
MIC ([2]; strain 513): 0.016 mg/L (≈ 0.0126 µM)
MIC ([2]; strain 729, Fks2_HS1_S663P): 8 mg/L (≈ 6.3 µM)
MIC ([2]; strain 4720, Fks2_HS1_S645P, echinocandin resistant): 4 mg/L (≈ 3.15 µM)
MIC ([2]; strain 5592): 0.016 mg/L (≈ 0.0126 µM)
MIC ([2]; strain 14378, Fks1_HS1_S629P): 2 mg/L (≈ 1.57 µM)
MIC [3, 8]: 0.25 mg/L (≈ 0.197 µM)
MIC [3, 9]: 0.25 mg/L (≈ 0.197 µM)
MIC ([3]; Candidozyma auris, strain B11211, resistant to amphotericin B, fluconazole, micafungin): 4 mg/L (≈ 3.15 µM)
MIC [3, 10]: 4 mg/L (≈ 3.15 µM)
MIC ([3]; Candidozyma auris, strain B11220): 0.12 mg/L (≈ 0.0945 µM)
MIC [3, 11]: 1 mg/L (≈ 0.787 µM)
MIC ([3]; Candidozyma auris, strain B11785): 0.5 mg/L (≈ 0.394 µM)
MIC ([3]; Candidozyma auris, strain B11799): 2 mg/L (≈ 1.57 µM)
MIC ([3]; Candidozyma auris, strain B11801): 1 mg/L (≈ 0.787 µM)
MIC ([3]; Candidozyma auris, strain B11804): 0.5 mg/L (≈ 0.394 µM)

C[C@@H]1[C@H](O)[C@@H](C)/C=C/C=C/C=C/C=C/C=C/C=C/C=C/[C@H](O[C@@H]2O[C@H](C)[C@@H](O)[C@H](N)[C@@H]2O)C[C@@H]2O[C@](O)(C[C@@H](O)C[C@@H](O)[C@H](O)CC[C@@H](O)C[C@@H](O)CC(=O)O[C@H]1C)C[C@H](O)[C@H]2C(=O)O [Amphotericin B]
MICs range [4]: 0.25 to 1.5 µg/mL
MIC ([1]; strain 98-17): 0.25 mg/L (≈ 0.271 µM)
MIC ([1]; strain K1 (K-1)): 0.25 mg/L (≈ 0.271 µM)
MIC ([3]; strain B11104): 1 mg/L (≈ 1.08 µM)
MIC ([3]; strain B11203): 4 mg/L (≈ 4.33 µM)
MIC ([3]; strain B11211, resistant to amphotericin B, fluconazole, micafungin): 1.5 mg/L (≈ 1.62 µM)
MIC ([3]; strain B11219): 3 mg/L (≈ 3.25 µM)
MIC ([3]; strain B11220): 0.38 mg/L (≈ 0.411 µM)
MIC ([3]; strain B11221): 0.38 mg/L (≈ 0.411 µM)
MIC ([3]; strain B11785): 1.5 mg/L (≈ 1.62 µM)
MIC ([3]; strain B11799): 0.5 mg/L (≈ 0.541 µM)
MIC ([3]; strain B11801): 6 mg/L (≈ 6.49 µM)
MIC ([3]; strain B11804): 0.5 mg/L (≈ 0.541 µM)

OC(Cn1cncn1)(Cn1cncn1)c1ccc(F)cc1F [Fluconzole, fluconazole]
MIC [1, 12]: 16 mg/L (≈ 52.2 µM)
MIC [1, 13]: 16 mg/L (≈ 52.2 µM)
MIC [1, 14]: 4 mg/L (≈ 13.1 µM)
MIC [1, 15]: 0.5 mg/L (≈ 1.63 µM)
MIC [3, 8]: > 256 mg/L
MIC [3, 9]: 256 mg/L (≈ 836 µM)
MIC [3, 16]: > 256 mg/L
MIC [3, 10]: > 256 mg/L
MIC [3, 17]: 4 mg/L (≈ 13.1 µM)
MIC [3, 11]: 128 mg/L (≈ 418 µM)
MIC [3, 18]: 8 mg/L (≈ 26.1 µM)
MIC [3, 19]: 16 mg/L (≈ 52.2 µM)
MIC [3, 20]: 16 mg/L (≈ 52.2 µM)
MIC [3, 21]: 2 mg/L (≈ 6.53 µM)
MIC [5]: 32 mg/L (≈ 104 µM)

CC[C@@H]([C@H](C)O)n1ncn(-c2ccc(N3CCN(c4ccc(OC[C@@H]5CO[C@@](Cn6cncn6)(c6ccc(F)cc6F)C5)cc4)CC3)cc2)c1=O [Posaconazole, posaconazole]
dose required to achieve 1-log kill [6]: 150 mg/kg/24 h
MIC [1, 12]: 0.12 mg/L (≈ 0.171 µM)
MIC [1, 13]: 0.12 mg/L (≈ 0.171 µM)
MIC [1, 14]: 0.06 mg/L (≈ 0.0856 µM)
MIC [1, 15]: 0.03 mg/L (≈ 0.0428 µM)
MIC [7, 22]: 8 mg/L (≈ 11.4 µM)
MIC ([7]; strain 293, read-out: MIC): 0.5 mg/L (≈ 0.713 µM)
MIC ([7]; strain F14532, Cyp51 M220T): 1 mg/L (≈ 1.43 µM)
MIC ([7]; strain F16216, Cyp51 L98H + TR): 2 mg/L
MIC ([3]; Candidozyma auris, strain B11104, read-out: MIC): 0.5 mg/L (≈ 0.713 µM)
MIC ([3]; Candidozyma auris, strain B11203, read-out: MIC): 0.12 mg/L (≈ 0.171 µM)
MIC [3, 16]: 0.5 mg/L (≈ 0.713 µM)
MIC ([3]; Candidozyma auris, strain B11219, read-out: MIC): 0.5 mg/L (≈ 0.713 µM)
MIC [3, 17]: 0.06 mg/L (≈ 0.0856 µM)
MIC ([3]; Candidozyma auris, strain B11221, read-out: MIC): 0.5 mg/L (≈ 0.713 µM)
MIC [3, 18]: 0.016 mg/L (≈ 0.0228 µM)
MIC [3, 19]: 0.06 mg/L (≈ 0.0856 µM)
MIC [3, 20]: 0.12 mg/L (≈ 0.171 µM)
MIC [3, 21]: 0.03 mg/L (≈ 0.0428 µM)

C[C@@H](c1nc(-c2ccc(C#N)cc2)cs1)[C@](O)(Cn1cncn1)c1cc(F)ccc1F [Isavuconazole]
MIC [7, 22]: 8 mg/L (≈ 18.3 µM)
